# From US6479434B1, “Composition and method for treating plants with exogenous chemicals” (Monsanto Technology LLC, priority 1996, dated 2002)
# Experiments:
# Format in all cases: in vivo
# [1] = tested on: Prickly sida (Sida spinosa, SIDSP); assay: Example 52 greenhouse herbicidal inhibition, acifluorfen sodium compositions (Table 52); conditions: evaluated 10 days after application
# Excerpt: (§1) Seeds of the plant species indicated were planted in 85 mm square pots in a soil mix which was previously steam sterilized and prefertilized with a 13-13-14 NPK slow release fertilizer at a rate of 3.6 kg/m^3. The pots were placed in a greenhouse with sub-irrigation. About one week after emergence, seedlings were thinned as needed, including removal of any unhealthy or abnormal plants, to create a uniform series of test pots.
# (§2) The plants were maintained for the duration of the test in the greenhouse where they received a minimum of 14 hours of light per day. If natural light was insufficient to achieve the daily requirement, artificial light with an intensity of approximately 475 microeinsteins was used to make up the difference. Exposure temperatures were not precisely controlled but averaged about 27° C. during the day and about 18° C. during the night. Plants were sub-irrigated throughout the test to ensure adequate soil moisture levels.
# (§3) A set of pots was left untreated as a reference against which effects of the treatments could later be evaluated.
# (§4) Application of glyphosate compositions was made by spraying with a track sprayer fitted with a 9501E nozzle calibrated to deliver a spray volume of 93 liters per hectare (l/ha) at a pressure of 166 kilopascals (kPa). After treatment, pots were returned to the greenhouse until ready for evaluation.
# (§5) For evaluation of herbicidal effectiveness, all plants in the test were examined by a single practiced technician, who recorded percent inhibition, a visual measurement of the effectiveness of each treatment by comparison with untreated plants.
# (§6) Velvetleaf (Abutilon theophrasti, ABUTH), Japanese millet (Echinochloa crus-galli, ECHCF) and prickly sida (Sida spinosa, SIDSP) plants were grown and treated by the standard procedures given above. Applications of spray compositions were made 15 days after planting ABUTH, 9 days after planting ECHCF and 22 days after planting SIDSP. Evaluation of herbicidal inhibition was done 10 days after application.
# [2] = tested on: Japanese millet (Echinochloa crus-galli, ECHCF); assay: as above; conditions: evaluated 10 days after application
# Excerpt: as §1, §2, §3, §4, §5, §6
# [3] = tested on: Velvetleaf (Abutilon theophrasti, ABUTH); assay: as above; conditions: evaluated 10 days after application
# Excerpt: as §1, §2, §3, §4, §5, §6
# [4] = tested on: Prickly sida (Sida spinosa, SIDSP); assay: Example 53 greenhouse herbicidal inhibition, asulam compositions (Table 53); conditions: asulam rate 200 g a.i./ha; evaluated 14 days after application
# Excerpt: as §1
# (§7) The plants were maintained for the duration of the test in the greenhouse where they received a minimum of 14 hours of light per day. If natural light was insufficient to achieve the daily requirement, artificial light with an intensity of approximately 475 microeinsteins was used to make up the difference. […]
# as §3, §4
# (§8) For evaluation of herbicidal effectiveness, all plants in the test were examined by a single practiced technician, who recorded percent inhibition, a visual measurement of the effectiveness of each treatment by comparison with untreated plants. […]
# [5] = tested on: Japanese millet (Echinochloa crus-galli, ECHCF); assay: as above; conditions: asulam rate 200 g a.i./ha; evaluated 14 days after application
# Excerpt: as §1, §7, §3, §4, §8
# [6] = tested on: Prickly sida (Sida spinosa, SIDSP); assay: Example 54 greenhouse herbicidal inhibition, dicamba sodium compositions (Table 54); conditions: evaluated 17 days after application
# Excerpt: as §1, §2, §3, §4, §5
# as §6, with “14” for “15”, “8” for “9”, “21” for “22”, “17” for “10”
# [7] = tested on: Japanese millet (Echinochloa crus-galli, ECHCF); assay: as above; conditions: evaluated 17 days after application
# Excerpt: as §1, §2, §3, §4, §5
# as §6, with “14” for “15”, “8” for “9”, “21” for “22”, “17” for “10”
# [8] = tested on: Velvetleaf (Abutilon theophrasti, ABUTH); assay: as above; conditions: evaluated 17 days after application
# Excerpt: as §1, §2, §3, §4, §5
# as §6, with “14” for “15”, “8” for “9”, “21” for “22”, “17” for “10”
# [9] = tested on: Japanese millet (Echinochloa crus-galli, ECHCF); assay: Example 57 greenhouse herbicidal inhibition, fluazifop-p-butyl compositions (Table 57); conditions: fluazifop-p rate 5 g a.i./ha; evaluation 10 days after application
# Excerpt: as §1, §2, §3
# […] After treatment, pots were returned to the greenhouse until ready for evaluation.
# as §8
# [10] = tested on: Prickly sida (Sida spinosa, SIDSP); assay: Example 51 greenhouse herbicidal inhibition, paraquat dichloride compositions (Table 51); conditions: evaluated 12 days after application
# Excerpt: as §1, §2, §3, §4, §5
# as §6, with “14” for “15”, “8” for “9”, “21” for “22”, “12” for “10”
# [11] = tested on: Japanese millet (Echinochloa crus-galli, ECHCF); assay: as above; conditions: evaluated 12 days after application
# Excerpt: as §1, §2, §3, §4, §5
# as §6, with “14” for “15”, “8” for “9”, “21” for “22”, “12” for “10”
# [12] = tested on: Velvetleaf (Abutilon theophrasti, ABUTH); assay: as above; conditions: evaluated 12 days after application
# Excerpt: as §1, §2, §3, §4, §5
# as §6, with “14” for “15”, “8” for “9”, “21” for “22”, “12” for “10”
smiles,measurement,setting,value
O=C(O)c1cc(Oc2ccc(C(F)(F)F)cc2Cl)ccc1[N+](=O)[O-] [Acifluorfen],% Inhibition SIDSP,[1]; acifluorfen rate 25 g a.i./ha,15%
same,% Inhibition SIDSP,[1]; acifluorfen rate 50 g a.i./ha,17%
same,% Inhibition SIDSP,[1]; acifluorfen rate 100 g a.i./ha,35%
same,% Inhibition SIDSP,[1]; acifluorfen rate 200 g a.i./ha,40%
same,% Inhibition ECHCF,[2]; acifluorfen rate 25 g a.i./ha,2%
same,% Inhibition ECHCF,[2]; acifluorfen rate 50 g a.i./ha,7%
same,% Inhibition ECHCF,[2]; acifluorfen rate 100 g a.i./ha,18%
same,% Inhibition ECHCF,[2]; acifluorfen rate 200 g a.i./ha,35%
same,% Inhibition ABUTH,[3]; acifluorfen rate 25 g a.i./ha,20%
same,% Inhibition ABUTH,[3]; acifluorfen rate 50 g a.i./ha,32%
same,% Inhibition ABUTH,[3]; acifluorfen rate 100 g a.i./ha,52%
same,% Inhibition ABUTH,[3]; acifluorfen rate 200 g a.i./ha,62%
COC(=O)NS(=O)(=O)c1ccc(N)cc1 [Asulam],% Inhibition SIDSP,[4],0%
same,% Inhibition ECHCF,[5],12%
COc1c(Cl)ccc(Cl)c1C(=O)O [Dicamba],% Inhibition SDSP,[6]; dicamba rate 25 g a.i./ha,30%
same,% Inhibition SDSP,[6]; dicamba rate 50 g a.i./ha,40%
same,% Inhibition SDSP,[6]; dicamba rate 100 g a.i./ha,50%
same,% Inhibition SDSP,[6]; dicamba rate 200 g a.i./ha,58%
same,% Inhibition ECHCF,[7]; dicamba rate 25 g a.i./ha,0%
same,% Inhibition ECHCF,[7]; dicamba rate 50 g a.i./ha,0%
same,% Inhibition ECHCF,[7]; dicamba rate 100 g a.i./ha,0%
same,% Inhibition ECHCF,[7]; dicamba rate 200 g a.i./ha,5%
same,% Inhibition ABUTH,[8]; dicamba rate 25 g a.i./ha,47%
same,% Inhibition ABUTH,[8]; dicamba rate 50 g a.i./ha,63%
same,% Inhibition ABUTH,[8]; dicamba rate 100 g a.i./ha,82%
same,% Inhibition ABUTH,[8]; dicamba rate 200 g a.i./ha,93%
CCCCOC(=O)[C@@H](C)Oc1ccc(Oc2ccc(C(F)(F)F)cn2)cc1 [Fluazifop-p-butyl (technical)],% Inhibition ECHCF,[9],3%
C[n+]1ccc(-c2cc[n+](C)cc2)cc1 [Paraquat dichloride],% Inhibition SIDSP,[10]; paraquat rate 25 g a.i./ha,55%
same,% Inhibition SIDSP,[10]; paraquat rate 50 g a.i./ha,60%
same,% Inhibition SIDSP,[10]; paraquat rate 100 g a.i./ha,69%
same,% Inhibition SIDSP,[10]; paraquat rate 200 g a.i./ha,99%
same,% Inhibition ECHCF,[11]; paraquat rate 25 g a.i./ha,83%
same,% Inhibition ECHCF,[11]; paraquat rate 50 g a.i./ha,78%
same,% Inhibition ECHCF,[11]; paraquat rate 100 g a.i./ha,84%
same,% Inhibition ECHCF,[11]; paraquat rate 200 g a.i./ha,95%
same,% Inhibition ABUTH,[12]; paraquat rate 25 g a.i./ha,50%
same,% Inhibition ABUTH,[12]; paraquat rate 50 g a.i./ha,57%
same,% Inhibition ABUTH,[12]; paraquat rate 100 g a.i./ha,73%
same,% Inhibition ABUTH,[12]; paraquat rate 200 g a.i./ha,85%
